Measurements taken from patent publication US20090075951A1, “Methods and Reagents for the Treatment of Inflammatory Disorders” (CombinatoRx, Inc., priority 2003, published 2009).
Read-outs that look alike come from different tables or passages of the source.

What was measured:
[1] = tested on: TNFα secretion from PMA/ionomycin stimulated white blood cells from human buffy coat; assay: TNFα secretion assay, PMA/ionomycin stimulation
Description: (§1) Various concentrations of each test compound were added at the time of stimulation. […] After the plate was washed with 0.1% Tween 20/PBS, an HRP-luminescent substrate was added to each well and light intensity measured using a LJL Analyst plate luminometer.

cytokine secretion = assay: Suppression of cytokine secretion in vitro by individual tricyclic compounds
Description: Individual tricyclic compounds were tested for their ability to suppress cytokine secretion in vitro.

[2] = tested on: TNFα secretion from LPS stimulated white blood cells from human buffy coat; assay: TNFα secretion assay, LPS stimulation
Description: as §1

[3] = read-out: TNFα PI percent inhibition, 0.03 μM
[4] = read-out: TNFα PI percent inhibition, 0.06 μM
[5] = read-out: TNFα PI percent inhibition, […]
[6] = read-out: IL-1β LPS percent inhibition
[7] = read-out: IL-2 PI percent inhibition
[8] = Homo sapiens, read-out: TNFα LPS percent inhibition, 0.03 μM
[9] = Homo sapiens, read-out: TNFα LPS percent inhibition, 0.06 μM
[10] = Homo sapiens, read-out: TNFα LPS percent inhibition, […]
[11] = read-out: TNFα PI percent inhibition
[12] = Homo sapiens, read-out: TNFα LPS percent inhibition

With `CNCCCN1c2ccccc2CCc2ccccc21` [Desipramine, desipramine] the inhibition at 0.03 µM [1, 3] was 0%, the inhibition at 0.06 µM [1, 4] was 0% and the inhibition at 0.5 µM ([1]; read-out: TNFα PI percent inhibition, 0.50 μM) was 0%. The inhibition at 1 µM ([1]; read-out: TNFα PI percent inhibition, 1.00 μM) was 0%, the inhibition at 2 µM ([1]; read-out: TNFα PI percent inhibition, 2.00 μM) was 1% and the inhibition at 4 µM ([1]; read-out: TNFα PI percent inhibition, 4.00 μM) was 17%. For the same compound, the inhibition at 8 µM ([1]; read-out: TNFα PI percent inhibition, 8.00 μM) was 26%, the inhibition at 16 µM [1, 5] was 60% and the inhibition at 32 µM [1, 5] was 79%. The inhibition at 64 µM [1, 5] was 89%, the inhibition at 0.03 µM (cytokine secretion; [6]) was 0% and the inhibition at 0.06 µM (cytokine secretion; [6]) was 0%. It also gave an inhibition at 0.5 µM (cytokine secretion; [6]) of 11%, an inhibition at 1 µM (cytokine secretion; [6]) of 13% and an inhibition at 2 µM (cytokine secretion; [6]) of 10%. For the same compound, the inhibition at 4 µM (cytokine secretion; [6]) was 10%, the inhibition at 8 µM (cytokine secretion; [6]) was 10% and the inhibition at 16 µM (cytokine secretion; [6]) was 3%. The inhibition at 32 µM (cytokine secretion; [6]) was 9%, the inhibition at 64 µM (cytokine secretion; [6]) was 36% and the inhibition at 0.03 µM (cytokine secretion; [7]) was 0%. It also gave an inhibition at 0.06 µM (cytokine secretion; [7]) of 0%, an inhibition at 0.5 µM (cytokine secretion; [7]) of 0% and an inhibition at 1 µM (cytokine secretion; [7]) of 0%. For the same compound, the inhibition at 2 µM (cytokine secretion; [7]) was 0%, the inhibition at 4 µM (cytokine secretion; [7]) was 0% and the inhibition at 8 µM (cytokine secretion; [7]) was 8%. The inhibition at 16 µM (cytokine secretion; [7]) was 38%, the inhibition at 32 µM (cytokine secretion; [7]) was 68% and the inhibition at 64 µM (cytokine secretion; [7]) was 76%. The inhibition at 0.03 µM [2, 8] was 0%, the inhibition at 0.06 µM [2, 9] was 0% and the inhibition at 0.5 µM ([2]; Homo sapiens, read-out: TNFα LPS percent inhibition, 0.50 μM) was 0%. It also gave an inhibition at 1 µM ([2]; Homo sapiens, read-out: TNFα LPS percent inhibition, 1.00 μM) of 0%, an inhibition at 2 µM ([2]; Homo sapiens, read-out: TNFα LPS percent inhibition, 2.00 μM) of 0% and an inhibition at 4 µM ([2]; Homo sapiens, read-out: TNFα LPS percent inhibition, 4.00 μM) of 0%. For the same compound, the inhibition at 8 µM ([2]; Homo sapiens, read-out: TNFα LPS percent inhibition, 8.00 μM) was 0%, the inhibition at 16 µM [2, 10] was 3% and the inhibition at 32 µM [2, 10] was 34%. The inhibition at 64 µM [2, 10] was 64% and the “percent inhibition of TNFα secretion” value ([2]; LPS, Prednisolone 1 μM, Desipramine μM r5-r13: 0,0.5,1,2,4,8,16,32,64) was 60.8%.

`CN(C)CCC=C1c2ccccc2COc2ccccc21` [Doxepin, doxepin] gave an inhibition at 0.03 µM [1, 3] of 0%, an inhibition at 0.06 µM [1, 4] of 0% and an inhibition at 63 µM [1, 5] of 78%. The inhibition at 0.03 µM (cytokine secretion; [6]) was 0%, the inhibition at 0.06 µM (cytokine secretion; [6]) was 1% and the inhibition at 63 µM (cytokine secretion; [6]) was 26%. For the same compound, the inhibition at 0.03 µM (cytokine secretion; [7]) was 0%, the inhibition at 0.06 µM (cytokine secretion; [7]) was 0% and the inhibition at 63 µM (cytokine secretion; [7]) was 61%. It also gave an inhibition at 0.03 µM [2, 8] of 0%, an inhibition at 0.06 µM [2, 9] of 5% and an inhibition at 63 µM [2, 10] of 13%.

Work on `CN(C)CCCN1c2ccccc2CCc2ccccc21` [Imipramine, imipramine] yielded an inhibition at 0.03 µM [1, 3] of 0%, an inhibition at 0.06 µM [1, 4] of 0% and an inhibition at 63 µM [1, 5] of 92%. The inhibition at 0.03 µM (cytokine secretion; [6]) was 0%, the inhibition at 0.06 µM (cytokine secretion; [6]) was 0% and the inhibition at 63 µM (cytokine secretion; [6]) was 13%. The inhibition at 0.03 µM (cytokine secretion; [7]) was 0%, the inhibition at 0.06 µM (cytokine secretion; [7]) was 19% and the inhibition at 63 µM (cytokine secretion; [7]) was 85%. The inhibition at 0.03 µM [2, 8] was 0%, the inhibition at 0.06 µM [2, 9] was 10% and the inhibition at 63 µM [2, 10] was 3%.

For `Cc1cc2c(s1)Nc1ccccc1N=C2N1CCN(C)CC1` [Olanzapine], the inhibition at 0.03 µM [1, 11] was 0%, the inhibition at 0.06 µM [1, 11] was 0% and the inhibition at 0.5 µM [1, 11] was 0%. It also gave an inhibition at 1 µM [1, 11] of 0%, an inhibition at 2 µM [1, 11] of 0% and an inhibition at 4 µM [1, 11] of 0%. The inhibition at 8 µM [1, 11] was 0%, the inhibition at 16 µM [1, 11] was 13% and the inhibition at 32 µM [1, 11] was 27%. It also gave an inhibition at 64 µM [1, 11] of 54%, an inhibition at 0.03 µM (cytokine secretion; [6]) of 0% and an inhibition at 0.06 µM (cytokine secretion; [6]) of 0%. It also gave an inhibition at 0.5 µM (cytokine secretion; [6]) of 2%, an inhibition at 1 µM (cytokine secretion; [6]) of 5% and an inhibition at 2 µM (cytokine secretion; [6]) of 3%. The inhibition at 4 µM (cytokine secretion; [6]) was 3%, the inhibition at 8 µM (cytokine secretion; [6]) was 7% and the inhibition at 16 µM (cytokine secretion; [6]) was 21%. It also gave an inhibition at 32 µM (cytokine secretion; [6]) of 41%, an inhibition at 64 µM (cytokine secretion; [6]) of 40% and an inhibition at 0.03 µM (cytokine secretion; [7]) of 0%. The inhibition at 0.06 µM (cytokine secretion; [7]) was 0%, the inhibition at 0.5 µM (cytokine secretion; [7]) was 0% and the inhibition at 1 µM (cytokine secretion; [7]) was 0%. It also gave an inhibition at 2 µM (cytokine secretion; [7]) of 0%, an inhibition at 4 µM (cytokine secretion; [7]) of 0% and an inhibition at 8 µM (cytokine secretion; [7]) of 0%. For the same compound, the inhibition at 16 µM (cytokine secretion; [7]) was 0%, the inhibition at 32 µM (cytokine secretion; [7]) was 0% and the inhibition at 64 µM (cytokine secretion; [7]) was 0%. For the same compound, the inhibition at 0.03 µM [2, 12] was 0%, the inhibition at 0.06 µM [2, 12] was 0% and the inhibition at 0.5 µM [2, 12] was 0%. For the same compound, the inhibition at 1 µM [2, 12] was 0%, the inhibition at 2 µM [2, 12] was 0% and the inhibition at 4 µM [2, 12] was 0%. It also gave an inhibition at 8 µM [2, 12] of 0%, an inhibition at 16 µM [2, 12] of 0% and an inhibition at 32 µM [2, 12] of 0%. The inhibition at 64 µM [2, 12] was 10%.

`CNCC[C@@H](Oc1ccccc1C)c1ccccc1` [Tomoxetine, tomoxetine] was tested, and the inhibition at 0.03 µM [1, 3] was 0%, the inhibition at 0.07 µM ([1]; read-out: TNFα PI percent inhibition, 0.07 μM) was 4% and the inhibition at 69 µM [1, 5] was 72%. It also gave an inhibition at 0.03 µM (cytokine secretion; [6]) of 0%, an inhibition at 0.07 µM (cytokine secretion; [6]) of 0% and an inhibition at 69 µM (cytokine secretion; [6]) of 0%. For the same compound, the inhibition at 0.03 µM (cytokine secretion; [7]) was 0%, the inhibition at 0.07 µM (cytokine secretion; [7]) was 1% and the inhibition at 69 µM (cytokine secretion; [7]) was 79%. For the same compound, the inhibition at 0.03 µM [2, 8] was 0%, the inhibition at 0.07 µM ([2]; Homo sapiens, read-out: TNFα LPS percent inhibition, 0.07 μM) was 1% and the inhibition at 69 µM [2, 10] was 0%.

`CC(CN(C)C)CN1c2ccccc2CCc2ccccc21` (stereo not shown) [Trimipramine, trimipramine] was tested, and the inhibition at 0.01 µM ([1]; read-out: TNFα PI percent inhibition, 0.01 μM) was 0%, the inhibition at 0.03 µM [1, 3] was 0% and the inhibition at 0.06 µM [1, 4] was 0%. The inhibition at 29 µM [1, 5] was 77%, the inhibition at 0.01 µM (cytokine secretion; [6]) was 0% and the inhibition at 0.03 µM (cytokine secretion; [6]) was 0%. The inhibition at 0.06 µM (cytokine secretion; [6]) was 0%, the inhibition at 29 µM (cytokine secretion; [6]) was 2% and the inhibition at 0.01 µM (cytokine secretion; [7]) was 0%. It also gave an inhibition at 0.03 µM (cytokine secretion; [7]) of 5%, an inhibition at 0.06 µM (cytokine secretion; [7]) of 6% and an inhibition at 29 µM (cytokine secretion; [7]) of 36%. The inhibition at 0.01 µM ([2]; Homo sapiens, read-out: TNFα LPS percent inhibition, 0.01 μM) was 0%, the inhibition at 0.03 µM [2, 8] was 1% and the inhibition at 0.06 µM [2, 9] was 3%. It also gave an inhibition at 29 µM [2, 10] of 11%.
